Laboratory results from US20110311649A1, “NOVEL IMIDAZOLE DERIVATIVES” (SYNGENTA CROP PROTECTION, INC., priority 2007, published 2011).

Key:
Type in all cases: in vivo
[1] = tested on: Pyrenophora teres (Helminthosporium teres); assay: Pyrenophora teres (Helminthosporium teres)/Barley/Preventive (action against net blotch on barley); conditions: 96 h, preventive spray, barley plants cv. Regina, assessed 4 days after inoculation, read-out: inhibit fungal infestation
Method: Pyrenophora teres (Helminthosporium teres)/Barley/Preventive (Action Against Net Blotch on Barley) 1-week-old barley plants cv. Regina are treated with the formulated test compound in a spray chamber. Two days after application barley plants are inoculated by spraying a spore suspension (2.6×10^4 conidia/ml) on the test plants. After an incubation period of 4 days at 20° C. and 95% r. h. the disease incidence is assessed.

[2] = tested on: Magnaporthe grisea (Pyricularia oryzae); assay: whole plant or invertebrate; conditions: 144 h, read-out: inhibit fungal infestation
Botrytis cinerea = assay: Botrytis cinerea/Tomato/Preventive (action against Botrytis on tomato); conditions: 72 h, preventive spray, tomato plants cv. Roter Gnom, assessed 3 days after inoculation, read-out: inhibit fungal infestation
Method: Botrytis cinerea/Tomato/Preventive (Action Against Botrytis on Tomato) 4 weeks old tomato plants cv. Roter Gnom are treated with the formulated test compound in a spray chamber. Two days after application tomato plants are inoculated by spraying a spore suspension on the test plants. After an incubation period of 3 days at 20° C. and 95% r. h. in a greenhouse the disease incidence is assessed.

Septoria tritici = assay: Septoria tritici/Wheat/Preventive (action against Septoria leaf spot on wheat); conditions: Zymoseptoria tritici, preventive spray, wheat plants cv. Riband, assessed 16-18 days after inoculation, read-out: inhibit fungal infestation
Method: Septoria tritici/Wheat/Preventive (Action Against Septoria Leaf Spot on Wheat) 2 weeks old wheat plants cv. Riband are treated with the formulated test compound in a spray chamber. One day after application wheat plants are inoculated by spraying a spore suspension (10^6 conidia/ml) on the test plants. After an incubation period of 1 day at 22° C./21° C. and 95% r. h. plants are kept at 22° C./21° C. and 70% r.h. in a greenhouse. The disease incidence is assessed 16-18 days after inoculation.

Puccinia recondita = assay: Puccinia recondita/Wheat/Preventive (action against brown rust on wheat); conditions: 264 h, preventive spray, wheat plants cv. Arina, assessed 11 days after inoculation, read-out: inhibit fungal infestation
Method: Puccinia recondita/Wheat/Preventive (Action Against Brown Rust on Wheat) 1 week old wheat plants cv. Arina are treated with the formulated test compound in a spray chamber. One day after application wheat plants are inoculated by spraying a spore suspension ([…] uredospores/ml) on the test plants. After an incubation period of 1 day at 20° C. and 95% r. h. plants are kept for 10 days 20° C./18° C. (day/night) and 60% r.h. in a greenhouse. The disease incidence is assessed 11 days after inoculation.

Uncinula necator = assay: Uncinula necator/Grape/Preventive (action against powdery mildew on grape); conditions: Erysiphe necator, 168 h, preventive spray, grape seedlings cv. Gutedel, assessed 7 days after inoculation, read-out: inhibit fungal infestation
Method: Uncinula necator/Grape/Preventive (Action Against Powdery Mildew on Grape) 5 weeks old grape seedlings cv. Gutedel are treated with the formulated test compound in a spray chamber. One day after application grape plants are inoculated by shaking plants infected with grape powdery mildew above the test plants. After an incubation period of 7 days at 24° C./22° C. and 70% r. h. under a light regime of 14/10 h (light/dark) the disease incidence is assessed.

Alternaria solani = assay: Alternaria solani/Tomato/Preventive (action against Alternaria on tomato); conditions: 96 h, preventive spray, tomato plants cv. Roter Gnom, assessed 4 days after inoculation, read-out: inhibit fungal infestation
Method: Alternaria solani/Tomato/Preventive (Action Against Alternaria on Tomato) 4 weeks old tomato plants cv. Roter Gnom are treated with the formulated test compound in a spray chamber. Two days after application tomato plants are inoculated by spraying a spore suspension on the test plants. After an incubation period of 4 days at 22° C./18° C. and 95% r. h. in a greenhouse the disease incidence is assessed.

Measured: inhibition at 200 ppm

Cc1nc(Cl)c(-c2c(F)cc(F)cc2F)n1-c1cnc2ccccc2c1 [I.j.270, 3-[4-chloro-2-methyl-5-(2,4,6-trifluoro-phenyl)-imidazol-1-yl]-quinoline]
≥ 80%: all assays above

COc1cc(F)c(-c2c(Cl)nc(C)n2-c2ccc(Cl)nc2)c(F)c1 [I.m.210, 2-Chloro-5-[4-chloro-5-(2,6-difluoro-4-methoxy-phenyl)-2-methyl-imidazol-1-yl]-pyridine]
≥ 80%: all assays above

Fc1cc(F)c(-c2c(Cl)nc(Cl)n2-c2ccc(Cl)nc2)c(F)c1 [I.j.209, 2-Chloro-5-[2,4-dichloro-5-(2,4,6-trifluoro-phenyl)-imidazol-1-yl]-pyridine]
not listed: Puccinia recondita | Uncinula necator
≥ 80%: all other assays above

COc1cc(F)c(-c2c(Cl)nc(C)n2-c2ccc(OC)nc2)c(F)c1 [I.m.220, 5-[4-Chloro-5-(2,6-difluoro-4-methoxy-phenyl)-2-methyl-imidazol-1-yl]-2-methoxy-pyridine]
≥ 80%: all assays above

Fc1cc(F)c(-c2c(Cl)nc(Cl)n2-c2cnc3ccccc3c2)c(F)c1 [I.j.269, 3-[2,4-dichloro-5-(2,4,6-trifluoro-phenyl)-imidazol-1-yl]-quinoline]
≥ 80%: [1] | Septoria tritici | Uncinula necator | Alternaria solani

Cc1ccc(-n2c(C)nc(Cl)c2-c2c(F)cc(F)cc2F)cn1 [I.j.225, 5-[4-Chloro-2-methyl-5-(2,4,6-trifluoro-phenyl)-imidazol-1-yl]-2-methyl-pyridine]
≥ 80%: [2] | Septoria tritici | Uncinula necator | Alternaria solani

Cc1nc(Cl)c(-c2c(F)cc(F)cc2F)n1-c1ccc(Cl)nc1 [I.j.210, 2-Chloro-5-[4-chloro-2-methyl-5-(2,4,6-trifluoro-phenyl)-imidazol-1-yl]-pyridine]
≥ 80%: all assays above

COc1cc(F)c(-c2c(Cl)nc(C)n2-c2ccc(C)nc2)c(F)c1 [I.m.225, 5-[4-Chloro-5-(2,6-difluoro-4-methoxy-phenyl)-2-methyl-imidazol-1-yl]-2-methyl-pyridine]
≥ 80%: all assays above
